Measurements from patent US20210253642A1, “CALPAIN MODULATORS AND THERAPEUTIC USES THEREOF BACKGROUND” (Blade Therapeutics, Inc., priority 2018, published 2021).

What was measured:
[1] = from CC(C)[C@H](NC(=O)CC(Sc1ccccc1)[C@H](COC(=O)[C@@H](N)Cc1ccc(O[Si](C)(C)C(C)(C)C)cc1)NC(=O)OC(C)(C)C)C(=O)O; amide bond; FDPP; DMF; 6.97 mM; 20.0 °C; 8.0 h
[2] = molecular target: T1, Human Cathepsin S (Homo sapiens, UniProt P25774); assay: Cathepsin continuous fluorescence inhibition assay; format: biochemical; conditions: Column F; enzyme 6 nM, substrate 1 uM, pH 4.5, 30 minutes pre-incubation with inhibitor
T1 construct: purchased
Description: (§1) Cathepsin activity and inhibition thereof was assessed by means of a continuous fluorescence assay. All assays were run in 384 well format and utilized peptide substrates that liberate fluorescence upon protease catalyzed cleavage. FLIPR plate readers (Molecular Devices Inc.) were used to monitor reactions and extract initial rates which were then fit (four parameter logistic function) to obtain IC50 values. All enzymes are human. All enzymes and reagents were obtained commercially and are summarized in Tables 1 and 2 below along with assay conditions.

[3] = molecular target: T2, Human Cathepsin L (Homo sapiens, UniProt P07711); assay: Cathepsin continuous fluorescence inhibition assay; format: biochemical; conditions: Column G; enzyme 0.025 nM, substrate 1 uM, pH 6.0, 30 minutes pre-incubation with inhibitor
T2 construct: purchased
Description: as §1

[4] = molecular target: T3, Human Cathepsin K (Homo sapiens, UniProt P43235); assay: Cathepsin continuous fluorescence inhibition assay; format: biochemical; conditions: Column E; enzyme 10 nM, substrate 1 uM, pH 5.5, 30 minutes pre-incubation with inhibitor
T3 construct: purchased
T3 sequence (P43235 115-329): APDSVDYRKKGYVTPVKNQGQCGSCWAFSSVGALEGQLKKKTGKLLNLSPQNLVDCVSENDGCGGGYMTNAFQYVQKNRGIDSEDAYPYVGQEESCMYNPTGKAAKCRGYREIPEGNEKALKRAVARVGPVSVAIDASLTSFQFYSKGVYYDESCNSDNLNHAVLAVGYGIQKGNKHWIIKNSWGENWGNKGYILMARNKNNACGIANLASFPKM
Description: as §1

[5] = molecular target: T4, Human Cathepsin B (Homo sapiens, UniProt P07858); assay: Cathepsin continuous fluorescence inhibition assay; format: biochemical; conditions: Column D; enzyme 25 nM, substrate 1 uM, pH 5.0, 30 minutes pre-incubation with inhibitor
T4 construct: purchased
Description: as §1

[6] = molecular target: T5, Human Calpain 1/NS1 (Homo sapiens, UniProt P07384); assay: Calpain continuous fluorescence (FRET) inhibition assay; format: biochemical; conditions: Column A; SensoLyte 520 FRET substrate, pH 7.5, 25C
T5 sequence (P07384 1-714): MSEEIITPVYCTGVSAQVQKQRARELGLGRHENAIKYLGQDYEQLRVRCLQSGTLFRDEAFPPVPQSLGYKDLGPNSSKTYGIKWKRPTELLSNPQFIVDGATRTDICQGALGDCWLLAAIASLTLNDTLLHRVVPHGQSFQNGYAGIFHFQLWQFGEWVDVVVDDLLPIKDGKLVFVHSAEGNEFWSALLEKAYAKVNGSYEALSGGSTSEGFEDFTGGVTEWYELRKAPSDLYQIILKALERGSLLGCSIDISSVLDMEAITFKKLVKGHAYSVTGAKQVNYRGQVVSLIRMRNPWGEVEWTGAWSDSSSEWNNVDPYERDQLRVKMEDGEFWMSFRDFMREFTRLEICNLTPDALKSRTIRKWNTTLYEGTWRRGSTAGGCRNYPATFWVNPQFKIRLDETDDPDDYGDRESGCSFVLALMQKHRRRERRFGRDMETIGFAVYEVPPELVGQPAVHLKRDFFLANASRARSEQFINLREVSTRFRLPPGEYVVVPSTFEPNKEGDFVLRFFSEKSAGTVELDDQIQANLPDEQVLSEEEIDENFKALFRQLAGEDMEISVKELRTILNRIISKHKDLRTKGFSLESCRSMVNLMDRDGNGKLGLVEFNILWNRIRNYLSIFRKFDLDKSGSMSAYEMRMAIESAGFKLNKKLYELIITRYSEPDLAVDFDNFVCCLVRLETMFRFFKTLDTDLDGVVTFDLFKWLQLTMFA
T5 sequence (P04632 1-268 partner): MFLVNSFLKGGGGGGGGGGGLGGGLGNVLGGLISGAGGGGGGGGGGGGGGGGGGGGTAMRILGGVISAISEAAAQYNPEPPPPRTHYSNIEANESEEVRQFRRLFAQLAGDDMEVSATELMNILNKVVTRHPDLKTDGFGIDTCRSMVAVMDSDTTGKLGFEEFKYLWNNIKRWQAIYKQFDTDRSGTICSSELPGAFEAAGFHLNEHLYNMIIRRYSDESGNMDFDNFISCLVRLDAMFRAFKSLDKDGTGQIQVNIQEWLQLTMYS
Description: (§2) Calpain 1, 2, and 9 activity and inhibition thereof was assessed by means of a continuous fluorescence assay. The SensoLyte 520 Calpain substrate (Anaspec Inc.) was optimized for detecting calpain activity. This substrate contains an internally quenched 5-FAM/QXLTM 520 FRET pair. Calpains 1, 2, and 9 cleave the FRET substrate into two separate fragments resulting in an increase of 5-FAM fluorescence that is proportional to calpain activity
(§3) Assays were typically setup in black 384-well plates using automated liquid handling as follows. Calpain assay base buffer typically contains 50 mM Tris, pH 7.5, 100 mM NaCl and 1 mM DTT. Inhibitors were serially diluted in DMSO and used to setup 2× mixtures with calpains in the aforementioned buffer. After incubation at ambient temperature (25C), the reaction was initiated by adding a 2× mix of the fluorescent peptide substrate and CaCl2) (required for in-situ calpain activation) in the same buffer. Reaction progress curve data were typically collected for 10 min using excitation/emission wavelengths of 490 nm/520 nm on SpectraMax i3x or the FLIPR-Tetra plate readers (Molecular Devices Inc.). Reaction rates were calculated from progress curve slopes typically over 1-5 min. Dose response curves (rate vs. log inhibitor concentration) were typically fit to a 4-parameter logistic function to extract IC50 values.

[7] = molecular target: T6, Human Calpain 9/NS1 (Homo sapiens, UniProt O14815); assay: as above; format: biochemical; conditions: Column C; SensoLyte 520 FRET substrate, pH 7.5, 25C
T6 sequence (O14815 1-690): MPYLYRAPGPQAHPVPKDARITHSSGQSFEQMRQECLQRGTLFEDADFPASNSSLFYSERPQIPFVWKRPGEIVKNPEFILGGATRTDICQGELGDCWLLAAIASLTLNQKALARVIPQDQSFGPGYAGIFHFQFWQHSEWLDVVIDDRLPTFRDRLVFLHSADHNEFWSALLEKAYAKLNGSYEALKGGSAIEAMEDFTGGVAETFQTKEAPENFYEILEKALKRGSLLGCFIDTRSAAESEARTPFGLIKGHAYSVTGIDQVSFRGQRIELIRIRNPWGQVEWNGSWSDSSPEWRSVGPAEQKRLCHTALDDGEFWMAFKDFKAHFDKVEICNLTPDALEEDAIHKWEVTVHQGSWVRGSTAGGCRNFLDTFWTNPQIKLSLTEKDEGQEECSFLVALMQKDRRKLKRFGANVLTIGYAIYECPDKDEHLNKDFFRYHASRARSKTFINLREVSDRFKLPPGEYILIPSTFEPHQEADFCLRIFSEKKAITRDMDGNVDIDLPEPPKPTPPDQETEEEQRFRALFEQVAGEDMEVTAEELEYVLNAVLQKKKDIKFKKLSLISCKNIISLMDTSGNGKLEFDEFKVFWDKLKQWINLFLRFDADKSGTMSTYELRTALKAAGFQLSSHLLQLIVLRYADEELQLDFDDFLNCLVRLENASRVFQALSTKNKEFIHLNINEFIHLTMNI
T6 sequence (P04632 1-268 partner): T5 sequence (P04632 1-268 partner)
Description: as §2, §3

[8] = molecular target: T7, Human Calpain 2/NS1 (Homo sapiens, UniProt P17655); assay: as above; format: biochemical; conditions: Column B; SensoLyte 520 FRET substrate, pH 7.5, 25C
T7 sequence (P17655 1-700): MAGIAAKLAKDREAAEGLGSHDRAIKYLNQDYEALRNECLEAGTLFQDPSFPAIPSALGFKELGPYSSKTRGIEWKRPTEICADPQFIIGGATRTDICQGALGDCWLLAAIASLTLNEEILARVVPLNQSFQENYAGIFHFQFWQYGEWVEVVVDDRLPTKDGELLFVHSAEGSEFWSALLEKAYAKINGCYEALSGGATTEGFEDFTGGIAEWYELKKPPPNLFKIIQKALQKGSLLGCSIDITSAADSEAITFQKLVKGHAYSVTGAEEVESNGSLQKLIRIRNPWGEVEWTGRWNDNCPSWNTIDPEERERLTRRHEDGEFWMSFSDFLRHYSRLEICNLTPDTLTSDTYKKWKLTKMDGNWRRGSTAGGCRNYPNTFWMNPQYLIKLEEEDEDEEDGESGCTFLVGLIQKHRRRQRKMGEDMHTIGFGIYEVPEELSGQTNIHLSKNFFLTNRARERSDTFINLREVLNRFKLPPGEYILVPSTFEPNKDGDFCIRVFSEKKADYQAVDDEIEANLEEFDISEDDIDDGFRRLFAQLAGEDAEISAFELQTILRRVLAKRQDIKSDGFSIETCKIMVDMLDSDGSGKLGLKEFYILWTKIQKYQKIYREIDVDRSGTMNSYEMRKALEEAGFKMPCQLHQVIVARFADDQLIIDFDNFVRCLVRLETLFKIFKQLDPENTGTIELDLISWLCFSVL
T7 sequence (P04632 1-268 partner): T5 sequence (P04632 1-268 partner)
Description: as §2, §3

T2 sequence (P07711 114-333): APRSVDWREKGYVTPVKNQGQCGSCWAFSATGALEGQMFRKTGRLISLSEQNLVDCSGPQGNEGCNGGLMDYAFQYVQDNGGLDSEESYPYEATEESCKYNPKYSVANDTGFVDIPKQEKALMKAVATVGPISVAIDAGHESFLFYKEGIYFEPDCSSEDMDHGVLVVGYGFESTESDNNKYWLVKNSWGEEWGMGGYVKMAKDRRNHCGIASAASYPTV
T1 sequence (P25774 115-331): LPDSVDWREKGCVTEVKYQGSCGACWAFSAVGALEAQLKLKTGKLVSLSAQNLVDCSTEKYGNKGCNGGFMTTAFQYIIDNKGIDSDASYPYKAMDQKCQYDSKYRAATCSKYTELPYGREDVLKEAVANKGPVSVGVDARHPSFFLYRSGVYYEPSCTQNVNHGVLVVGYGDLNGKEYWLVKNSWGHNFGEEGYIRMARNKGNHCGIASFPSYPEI

IC50 [2] | IC50 [3] | IC50 [4] | IC50 [5] | IC50 [6] | IC50 [7] | IC50 [8] | Compound | ring closure, yield of all isomers [1]
– | – | – | – | – | – | – | CC(C)[C@@H]1NC(=O)CC(Sc2ccccc2)[C@@H](NC(=O)OC(C)(C)C)COC(=O)[C@H](Cc2ccc(O[Si](C)(C)C(C)(C)C)cc2)NC1=O (some centres unmarked) | 39.4%
< 3 µM | < 3 µM | < 3 µM | 3 to 10 µM | > 10 µM | > 10 µM | > 10 µM | CC(C)[C@@H]1NC(=O)/C=C/[C@@H](NC(=O)OC(C)(C)C)COC(=O)[C@H](C)NC1=O [Compound 15, tert-butyl ((3S,6S,11R,E)-6-isopropyl-3-methyl-2,5,8-trioxo-1-oxa-4,7-diazacyclododec-9-en-11-yl)carbamate] | –
< 3 µM | < 3 µM | < 3 µM | < 3 µM | < 3 µM | > 10 µM | < 3 µM | CCCCCC/C=C\CC(=O)N[C@@H](Cc1ccc(O)cc1)C(=O)N[C@H](C(=O)N[C@@H]1/C=C/C(=O)N[C@@H](C(C)C)C(=O)N[C@@H](C)C(=O)OC1)C(C)C [Compound 16, (Z)—N—((S)-3-(4-hydroxyphenyl)-1-(((S)-1-(((3S,6S,11R,E)-6-isopropyl-3-methyl-2,5,8-trioxo-1-oxa-4,7-diazacyclododec-9-en-11-yl)amino)-3-methyl-1-oxobutan-2-yl)amino)-1-oxopropan-2-yl)dec-3-enamide] | –
< 3 µM | < 3 µM | < 3 µM | < 3 µM | < 3 µM | > 10 µM | < 3 µM | CC(C)[C@@H]1NC(=O)/C=C/[C@@H](NC(=O)[C@@H](NC(=O)[C@H](Cc2ccc(O)cc2)NC(=O)OC(C)(C)C)C(C)C)COC(=O)[C@H](C)NC1=O [Compound 17, Tert-butyl ((S)-3-(4-hydroxyphenyl)-1-(((S)-1-(((3S,6S,11R,E)-6-isopropyl-3-methyl-2,5,8-trioxo-1-oxa-4,7-diazacyclododec-9-en-11-yl)amino)-3-methyl-1-oxobutan-2-yl)amino)-1-oxopropan-2-yl)carbamate] | –
< 3 µM | < 3 µM | < 3 µM | < 3 µM | < 3 µM | > 10 µM | < 3 µM | CCCCCC/C=C\CC(=O)N[C@@H](Cc1ccc(O)cc1)C(=O)N[C@H](C(=O)N[C@@H]1/C=C/C(=O)N[C@@H](C(C)C)C(=O)N[C@@H](Cc2ccc(O)cc2)C(=O)OC1)C(C)C [Compound 18, (Z)—N—((S)-1-(((S)-1-(((3S,6S,11R,E)-3-(4-hydroxybenzyl)-6-isopropyl-2,5,8-trioxo-1-oxa-4,7-diazacyclododec-9-en-11-yl)amino)-3-methyl-1-oxobutan-2-yl)amino)-3-(4-hydroxyphenyl)-1-oxopropan-2-yl)dec-3-enamide] | –
